Test results published in patent US11173124B2, “Oral delivery of GLP-1 peptide analogs” (MEDIMMUNE LIMITED, priority 2017, dated 2021).

Tests used:
[1] = First rat intraduodenal study, sodium caprate as permeation enhancer (Example 4); format: in vivo; conditions: for AUC / Cmax / Tmax / half-life: in vivo; for bioavailability: plasma
Protocol: (§1) Solution formulations comprising GLP-1 peptide analogs were injected into rats in the duodenum segment of the small intestine. The first ID study involved the use of sodium caprate as the permeation enhancer and the SEQ ID NO:3 GLP-1 peptide analog. Absolute bioavailability (% F) is a percentage-expressed measure of systemic drug exposure after oral, or in the current example intraduodenal, administration to the systemic exposure generated with intravenous (IV) administration of drug solution. Absolute bioavailability, (% F), is calculated as a percentage of systemic, or blood, drug concentration area under curve (AUC) of the AUC of IV administration adjusted to the amounts of drug given via these routes of administration.

[2] = Second rat intraduodenal study, permeation enhancers from Caco-2 (Example 5); format: in vivo; conditions: for AUC / Cmax / Tmax / half-life: in vivo, pH 8, rat
Protocol: as §1
Following the initial rat ID study, a second rat ID administration study was performed to evaluate the influence of permeation enhancers identified from the Caco-2 model study. That is, tetradecyl maltoside, sodium chenodeoxycholate, and combination of sodium chenodeoxycholate and propyl gallate were tested for their effect on oral bioavailability of the SEQ ID NO:3 peptide (Table 6).

[3] = Intraduodenal, 1 mg/kg peptide, 0 mg/kg sodium caprate, 0.5 mg/mL in PBS pH 8.0
[4] = Intravenous, 0.01 mg/kg peptide in PBS pH 8.0
[5] = 50 mg/kg, pH 8.5, rat, Intraduodenal, 50 mg/kg peptide + 50 mg/kg sodium caprate, PBS pH 8.5
[6] = iv, 0.01 mg/kg, pH 8, rat, 0.01 mg/kg peptide in PBS pH 8.0
[7] = pH 8, rat, Intraduodenal, 1 mg/kg peptide, 0 mg/kg sodium caprate, 0.5 mg/mL in PBS pH 8.0
[8] = pH 8.5, rat, Intraduodenal, 1 mg/kg peptide + 50 mg/kg sodium caprate, PBS pH 8.5
[9] = pH 8.5, rat, Intraduodenal, 10 mg/kg peptide + 50 mg/kg sodium caprate, PBS pH 8.5
[10] = sc, 0.118 mg/kg, Subcutaneous, 0.118 mg/kg peptide in 0.1% BSA-PBS
[11] = ID, 1 mg/kg peptide + 25 mg/kg Na CDC + 12.5 mg/kg PG, PBS pH 8.0
[12] = ID, 1 mg/kg peptide + 25 mg/kg Na CDC, PBS pH 8.0
[13] = ID, 1 mg/kg peptide + 25 mg/kg Tetradecylmaltoside, PBS pH 8.0
[14] = ID, 1 mg/kg peptide + 50 mg/kg Na CDC, PBS pH 8.0
[15] = ID, 1 mg/kg peptide + 50 mg/kg Tetradecylmaltoside, PBS pH 8.0
[16] = ID, 10 mg/kg peptide + 50 mg/kg Na CDC + 25 mg/kg PG, PBS pH 8.0
[17] = ID, 10 mg/kg peptide + 50 mg/kg Na CDC, PBS pH 8.0
[18] = ID, 10 mg/kg peptide + 50 mg/kg Tetradecylmaltoside, PBS pH 8.0
[19] = 1 mg/kg, ID, 1 mg/kg peptide, no permeation enhancer, PBS pH 8.0
[20] = iv, 0.01 mg/kg, 0.01 mg/kg peptide in PBS pH 8.0
[21] = ID, 1 mg/kg peptide + 50 mg/kg Na CDC + 25 mg/kg PG, PBS pH 8.0

improvement in permeation ([1]; ID, 1 mg/kg peptide, 50 mg/kg sodium caprate (to 0.15%)): ~5 fold
F ([1]; Intraduodenal, 1 mg/kg peptide + 50 mg/kg sodium caprate, PBS pH 8.5): 0.15%
F [1, 3]: 0.035%
F ([1]; Intraduodenal, 10 mg/kg peptide + 50 mg/kg sodium caprate, PBS pH 8.5): 0.29%
F ([1]; Intraduodenal, 50 mg/kg peptide + 50 mg/kg sodium caprate, PBS pH 8.5): 0.71%
F [1, 4]: 100%
AUC [1, 5]: 46 µg·h/mL
Cmax [1, 5]: 6.3 µg/mL
Tmax [1, 5]: 0.44 h
half-life ([1]; 50 mg/kg, pH 8.5, rat, Intraduodenal, 50 mg/kg peptide + 50 mg/kg sodium caprate, PBS pH 8.5, read-out: T ½ (converted)): 8.3 h
AUC [1, 6]: 1.3 µg·h/mL
Cmax [1, 6]: 0.21 µg/mL
Tmax [1, 6]: 0.12 h
half-life ([1]; iv, 0.01 mg/kg, pH 8, rat, Intravenous, 0.01 mg/kg peptide in PBS pH 8.0, read-out: T ½ (converted)): 10 h
AUC [1, 7]: 0.045 µg·h/mL
Cmax [1, 7]: 0.0051 µg/mL
Tmax [1, 7]: 2.3 h
half-life ([1]; pH 8, rat, Intraduodenal, 1 mg/kg peptide, 0 mg/kg sodium caprate, 0.5 mg/mL in PBS pH 8.0, read-out: T ½ (converted)): 8.8 h
AUC [1, 8]: 0.2 µg·h/mL
Cmax [1, 8]: 0.034 µg/mL
Tmax [1, 8]: 0.38 h
half-life ([1]; pH 8.5, rat, Intraduodenal, 1 mg/kg peptide + 50 mg/kg sodium caprate, PBS pH 8.5, read-out: T ½ (converted)): 9.3 h
AUC [1, 9]: 3.8 µg·h/mL
Cmax [1, 9]: 0.47 µg/mL
Tmax [1, 9]: 0.44 h
half-life ([1]; pH 8.5, rat, Intraduodenal, 10 mg/kg peptide + 50 mg/kg sodium caprate, PBS pH 8.5, read-out: T ½ (converted)): 10 h
AUC [1, 10]: 11 µg·h/mL
Cmax [1, 10]: 0.46 µg/mL
Tmax [1, 10]: 9 h
half-life ([1]; sc, 0.118 mg/kg, Subcutaneous, 0.118 mg/kg peptide in 0.1% BSA-PBS, read-out: T ½ (converted)): 11 h
increase of bioavailability ([1]; intraduodenal, 0.71% with 50 mg/kg sodium caprate vs 0.035% without formulation intervention): ~20 fold
bioavailability [1, 3]: 0.035%
bioavailability ([1]; sc, Subcutaneous, 0.118 mg/kg peptide in 0.1% BSA-PBS): 71%
F [2, 11]: 0.28%
F [2, 12]: 0.12%
F [2, 13]: 0.08%
F [2, 14]: 0.21%
F [2, 15]: 0.06%
increase of oral bioavailability ([2]; ID, 1 mg/kg peptide, 50 mg/kg sodium chenodeoxycholate and 25 mg/kg propyl gallate (to 0.39%)): ~20 fold
F [2, 16]: 0.42%
F [2, 17]: 0.28%
F [2, 18]: 0.07%
F [2, 4]: 100%
AUC [2, 19]: 0.0194 µg·h/mL
Cmax [2, 19]: 0.00316 µg/mL
Tmax [2, 19]: 8 h
AUC [2, 20]: 1.03 µg·h/mL
Cmax [2, 20]: 0.0962 µg/mL
half-life ([2]; iv, 0.01 mg/kg, Intravenous, 0.01 mg/kg peptide in PBS pH 8.0, read-out: T ½ (converted)): 2.9 h
AUC [2, 11]: 0.293 µg·h/mL
Cmax [2, 11]: 0.039 µg/mL
Tmax [2, 11]: 0.3 h
half-life ([2]; ID, 1 mg/kg peptide + 25 mg/kg Na CDC + 12.5 mg/kg PG, PBS pH 8.0, read-out: T ½ (converted)): 9.1 h
AUC [2, 12]: 0.121 µg·h/mL
Cmax [2, 12]: 0.0213 µg/mL
Tmax [2, 12]: 0.3 h
half-life ([2]; ID, 1 mg/kg peptide + 25 mg/kg Na CDC, PBS pH 8.0, read-out: T ½ (converted)): 7.16 h
AUC [2, 13]: 0.0873 µg·h/mL
Cmax [2, 13]: 0.0054 µg/mL
Tmax [2, 13]: 1 h
half-life ([2]; ID, 1 mg/kg peptide + 25 mg/kg Tetradecylmaltoside, PBS pH 8.0, read-out: T ½ (converted)): 17.4 h
AUC [2, 21]: 0.403 µg·h/mL
Cmax [2, 21]: 0.0581 µg/mL
Tmax [2, 21]: 0.5 h
half-life ([2]; ID, 1 mg/kg peptide + 50 mg/kg Na CDC + 25 mg/kg PG, PBS pH 8.0, read-out: T ½ (converted)): 9.9 h
AUC [2, 14]: 0.212 µg·h/mL
Cmax [2, 14]: 0.0309 µg/mL
Tmax [2, 14]: 0.5 h
half-life ([2]; ID, 1 mg/kg peptide + 50 mg/kg Na CDC, PBS pH 8.0, read-out: T ½ (converted)): 9.3 h
AUC [2, 15]: 0.0632 µg·h/mL
Cmax [2, 15]: 0.0058 µg/mL
Tmax [2, 15]: 1 h
half-life ([2]; ID, 1 mg/kg peptide + 50 mg/kg Tetradecylmaltoside, PBS pH 8.0, read-out: T ½ (converted)): 10.3 h
AUC [2, 16]: 4.33 µg·h/mL
Cmax [2, 16]: 0.669 µg/mL
Tmax [2, 16]: 0.5 h
half-life ([2]; ID, 10 mg/kg peptide + 50 mg/kg Na CDC + 25 mg/kg PG, PBS pH 8.0, read-out: T ½ (converted)): 11 h
AUC [2, 17]: 2.92 µg·h/mL
Cmax [2, 17]: 0.38 µg/mL
Tmax [2, 17]: 0.5 h
half-life ([2]; ID, 10 mg/kg peptide + 50 mg/kg Na CDC, PBS pH 8.0, read-out: T ½ (converted)): 9.4 h
AUC [2, 18]: 0.705 µg·h/mL
Cmax [2, 18]: 0.0515 µg/mL
Tmax [2, 18]: 0.5 h
half-life ([2]; ID, 10 mg/kg peptide + 50 mg/kg Tetradecylmaltoside, PBS pH 8.0, read-out: T ½ (converted)): 8.19 h
Structure (SMILES): CC[C@H](C)[C@H](NC(=O)C(C)(Cc1ccccc1)NC(=O)[C@H](CCC(=O)O)NC(=O)[C@H](CCCCNC(=O)COCCOCCNC(=O)COCCOCCNC(=O)CC[C@H](NC(=O)CCCCCCCCCCCCCCCCC(=O)O)C(=O)O)NC(=O)[C@H](C)NC(=O)[C@H](C)NC(=O)[C@H](CCC(=O)O)NC(=O)CNC(=O)[C@H](CCC(=O)O)NC(=O)[C@H](CC(C)C)NC(=O)C(C)(Cc1ccccc1)NC(=O)[C@H](CO)NC(=O)C(C)(CO)NC(=O)[C@@H](NC(=O)[C@H](CC(=O)O)NC(=O)[C@H](CO)NC(=O)[C@@H](NC(=O)C(C)(Cc1ccccc1)NC(=O)[C@H](CO)NC(=O)CNC(=O)[C@H](CCC(=O)O)NC(=O)C(C)(C)NC(=O)[C@@H](N)Cc1c[nH]cn1)[C@@H](C)O)C(C)C)C(=O)N[C@@H](C)C(=O)NC(C)(Cc1ccccc1)C(=O)N[C@H](C(=O)N[C@H](C(=O)NC(C)(CCCCN)C(=O)NCC(=O)NCC(N)=O)C(C)C)C(C)C (stereo partly drawn) [SEQ ID NO: 3, Free-H-[AIB]-EGS-[αMePhe]-TSDV-[αMeSer]-S-[αMePhe]-LEGEAAK[(PEG2)2-γE-Stearate]-E-[αMePhe]-IA-[αMePhe]-VV-[αMeLys]-GG-amide]
